Measurements from patent US9790229B2, “Bruton's tyrosine kinase inhibitors” (priority 2009, dated 2017).
pIC50: −log10 of the molar value.

target: BTK (Homo sapiens (Human), UniProt Q06187); assay: In vitro BTK kinase assay: BTK-POLYGAT-LS ASSAY; conditions: not given
Sequence (Q06187 whole entry): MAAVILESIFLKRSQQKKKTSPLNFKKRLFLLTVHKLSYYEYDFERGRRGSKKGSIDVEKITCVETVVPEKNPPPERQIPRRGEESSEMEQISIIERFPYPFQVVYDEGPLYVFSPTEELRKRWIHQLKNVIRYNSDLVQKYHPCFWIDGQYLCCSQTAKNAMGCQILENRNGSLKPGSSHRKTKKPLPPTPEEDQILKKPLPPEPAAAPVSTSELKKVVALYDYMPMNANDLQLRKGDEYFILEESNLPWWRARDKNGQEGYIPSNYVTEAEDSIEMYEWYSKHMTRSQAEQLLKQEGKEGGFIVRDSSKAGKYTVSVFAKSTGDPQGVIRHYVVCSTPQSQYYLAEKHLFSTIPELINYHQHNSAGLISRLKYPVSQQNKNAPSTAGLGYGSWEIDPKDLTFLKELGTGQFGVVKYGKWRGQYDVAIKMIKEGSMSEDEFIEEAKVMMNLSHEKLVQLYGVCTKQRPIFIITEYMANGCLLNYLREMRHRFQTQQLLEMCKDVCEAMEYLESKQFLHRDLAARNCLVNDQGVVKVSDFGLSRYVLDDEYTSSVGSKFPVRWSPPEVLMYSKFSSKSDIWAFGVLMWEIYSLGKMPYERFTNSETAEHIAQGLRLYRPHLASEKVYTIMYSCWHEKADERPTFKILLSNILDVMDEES

Structure (SMILES)	pIC50
CN(C)[C@@H]1CCN(c2ccccc2NC(=O)Nc2cccc(C3CCCN(c4ncnc5[nH]ccc45)C3)c2)C1 (stereo partly drawn) [compound 210]	5.00 to 6.00
O=C(Nc1cccc(C2CN(c3ncnc4[nH]ccc34)CCN2CCO)c1)Nc1ccccc1N1CCCC1 (stereo not drawn) [compound 124, 1-(3-(1-(2-hydroxyethyl)-4-(7H-pyrrolo[2,3-d]pyrimidin-4-yl)piperazin-2-yl)phenyl)-3-(2-(pyrrolidin-1-yl)phenyl)urea]	6.00 to 7.00
O=C(Nc1ccsc1)Nc1cccc(C2CCCN(c3ncnc4[nH]ccc34)C2)c1 (stereo not drawn) [Cmpd 32, 1-(3-(1-(7H-pyrrolo[2,3-d]pyrimidin-4-yl)piperidin-3-yl)phenyl)-3-(thiophen-3-yl)urea]	5.00 to 6.00
O=C(Nc1ccccc1)Nc1csc(C2CCCN(c3ncnc4[nH]ccc34)C2)n1 (stereo not drawn) [compound 106, 1-(2-(1-(7H-pyrrolo[2,3-d]pyrimidin-4-yl)piperidin-3-yl)thiazol-4-yl)-3-phenylurea]	5.00 to 6.00
CC(C)(C)c1ccccc1NC(=O)Nc1cccc(C2CCCN(c3ncnc4[nH]ccc34)C2)c1 (stereo not drawn) [compound 167]	6.00 to 7.00
Cc1c(N)ncnc1N1CCCC(c2cccc(NC(=O)Nc3ccccc3)c2)C1 (stereo not drawn) [Cmpd 98, 1-(3-(1-(6-Amino-5-methylpyrimidin-4-yl)piperidin-3-yl)phenyl)-3-phenylurea]	5.00 to 6.00
Nc1ncnc(N2CCCC(c3nc(NC(=O)Nc4c(F)cc(F)cc4N4CCCC4)cs3)C2)c1Cl (stereo not drawn) [compound 114, 1-(2-(1-(6-amino-5-chloropyrimidin-4-yl)piperidin-3-yl)thiazol-4-yl)-3-(2,4-difluoro-6-(pyrrolidin-1-yl)phenyl)urea]	6.00 to 7.00
Cc1ccnc(Cl)c1NC(=O)Nc1cccc(C2CCCN(c3ncnc4[nH]ccc34)C2)c1 (stereo not drawn) [compound 190]	5.00 to 6.00
O=C(Nc1cccc(C2CCCN(c3ncnc4[nH]ccc34)C2)c1)Nc1ccccc1N1CCOCC1 (stereo not drawn) [compound 165]	6.00 to 7.00
O=C(Nc1cc(C2CCCN(c3ncnc4[nH]ccc34)C2)ccc1OC(F)(F)F)c1c(Cl)cccc1Cl (stereo not drawn) [Cmpd 88, N-(5-(1-(7H-pyrrolo[2,3-d]pyrimidin-4-yl)piperidin-3-yl)-2-(trifluoromethoxy)phenyl)-2,6-dichlorobenzamide]	5.00 to 6.00
O=C(Nc1cccc(C2CCCN(c3ncnc4[nH]ccc34)C2)c1)NC1CCC1 (stereo not drawn) [compound 204]	5.00 to 6.00
O=C(Nc1cccc(C2CCCN(c3ncnc4[nH]ccc34)C2)c1)Nc1ccccc1N1CCCC1=O (stereo not drawn) [compound 170]	6.00 to 7.00
O=C(Nc1cccc(C2CCCN(c3ncnc4[nH]ccc34)C2)c1)Nc1c(F)cc(F)cc1N1CCCC1 (stereo not drawn) [Cmpd 49, 1-(3-(1-(7H-pyrrolo[2,3-d]pyrimidin-4-yl)piperidin-3-yl)phenyl)-3-(2,4-difluoro-6-(pyrrolidin-1-yl)phenyl)urea]	> 7.00
O=C(Nc1cc(C2CCCN(c3ncnc4[nH]ccc34)C2)ccc1OC(F)(F)F)c1ccccc1 (stereo not drawn) [Cmpd 85, N-(5-(1-(7H-pyrrolo[2,3-d]pyrimidin-4-yl)piperidin-3-yl)-2-(trifluoromethoxy)phenyl)benzamide]	6.00 to 7.00
CC(C)(O)c1ccccc1NC(=O)Nc1cccc(C2CCCN(c3ncnc4[nH]ccc34)C2)c1 (stereo not drawn) [compound 195]	5.00 to 6.00
O=C(Nc1cccc(C2CCCN(c3ncnc4[nH]ccc34)C2)c1)N[C@@H](CO)C1CCCCC1 (stereo partly drawn) [compound 213]	5.00 to 6.00
O=C1C(Nc2ccccc2)c2ccccc2N1[C@@H]1CCCN(c2ncnc3[nH]ccc23)C1 (stereo partly drawn) [compound 274]	5.00 to 6.00
O=C(Nc1cccc(C2CCCN(c3ncnc4[nH]ccc34)C2)c1)Nc1ccccc1N1CCCCC1 (stereo not drawn) [compound 175]	6.00 to 7.00
COc1ncccc1NC(=O)Nc1cccc(C2CCCN(c3ncnc4[nH]ccc34)C2)c1 (stereo not drawn) [compound 215]	5.00 to 6.00
O=C1Cc2c(ncnc2N2CCCC(c3cccc(NC(=O)Nc4ccccc4)c3)C2)N1 (stereo not drawn) [Cmpd 96, 1-(3-(1-(6-oxo-6,7-dihydro-5H-pyrrolo[2,3-d]pyrimidin-4-yl)piperidin-3-yl)phenyl)-3-phenylurea]	5.00 to 6.00

same assay, conditions: read-out: IC50 (10 uM ATP); 10 uM ATP; in vitro Btk kinase assay, Example 41

Structure (SMILES)	pIC50
Nc1ncnc(N2C[C@@H](O)C[C@@H](N3CCCC(Nc4cc(Cl)cc(Cl)c4)C3=O)C2)c1F (stereo partly drawn) [compound 283, (3′R,5′S)-1′-(6-Amino-5-fluoropyrimidin-4-yl)-3-(3,5-dichlorophenylamino)-5′-hydroxy-1,3′-bipiperidin-2-one]	> 7.00
CC(C)NC(=O)Nc1cccc(C2CCCN(c3ncnc4[nH]ccc34)C2)c1 (stereo not drawn) [compound 241]	< 5.00
Nc1ncnc(N2CCC[C@@H](N3CCCC(Nc4cc(F)cc(Cl)c4)C3=O)C2)c1F (stereo in doubt) [compound 314, (3S,3′R)-1′-(6-Amino-5-fluoropyrimidin-4-yl)-3-(3-chloro-5-fluorophenylamino)-1,3′-bipiperidin-2-one]	> 7.00
COc1ccc(C(=O)Nc2cccc(C3CCCN(c4ncnc5[nH]ccc45)C3)c2)cc1 (stereo not drawn) [Cmpd 8, N-(3-(1-(7H-pyrrolo[2,3-d]pyrimidin-4-yl)piperidin-3-yl)phenyl)-4-methoxybenzamide]	< 5.00
Nc1ncnc(N2C[C@@H](F)C[C@@H](N3CCCC(Nc4cc(F)cc(Cl)c4)C3=O)C2)c1F (stereo partly drawn) [compound 279, (3′R, 5′S)-1′-(6-Amino-5-fluoropyrimidin-4-yl)-3-(3-chloro-5-fluorophenylamino)-5′-fluoro-1,3′-bipiperidin-2-one]	> 7.00
O=C(Nc1cc(C2CCCN(c3ncnc4[nH]ccc34)C2)cc(C(F)(F)F)c1)c1ccccc1 (stereo not drawn) [Cmpd 84, N-(3-(1-(7H-pyrrolo[2,3-d]pyrimidin-4-yl)piperidin-3-yl)-5-(trifluoromethyl)phenyl)benzamide]	< 5.00
O=C(Nc1csc(C2CCCN(c3ncnc4[nH]ncc34)C2)n1)Nc1c(F)cc(F)cc1N1CCCC1 (stereo not drawn) [compound 112, 1-(2-(1-(1H-pyrazolo[3,4-d]pyrimidin-4-yl)piperidin-3-yl)thiazol-4-yl)-3-(2,4-difluoro-6-(pyrrolidin-1-yl)phenyl)urea]	> 7.00
Nc1ncnc(N2CC[C@H](C(F)(F)F)[C@@H](N3CCCC(Nc4cc(Cl)cc(Cl)c4)C3=O)C2)c1F (stereo partly drawn) [compound 334, trans 1′-(6-Amino-5-fluoropyrimidin-4-yl)-3-(3,5-dichlorophenylamino)-4′-(trifluoromethyl)-1,3′-bipiperidin-2-one]	> 7.00
Cc1cc(NC(=O)Nc2cccc(C3CCCN(c4ncnc5[nH]ccc45)C3)c2)c(C(F)(F)F)o1 (stereo not drawn) [compound 236]	< 5.00
CN1CCCC(CNC(=O)Nc2cccc(C3CCCN(c4ncnc5[nH]ccc45)C3)c2)C1 (stereo not drawn) [compound 225]	< 5.00
O=S(=O)(Nc1cccc(C2CCCN(c3ncnc4[nH]ccc34)C2)c1)c1ccccc1 (stereo not drawn) [Cmpd 68, N-(3-(1-(7H-pyrrolo[2,3-d]pyrimidin-4-yl)piperidin-3-yl)phenyl)benzenesulfonamide]	< 5.00
Cn1nccc1NC(=O)Nc1cccc(C2CCCN(c3ncnc4[nH]ccc34)C2)c1 (stereo not drawn) [compound 249]	< 5.00
O=C1C(Nc2ccccc2S(=O)(=O)N2CCCCC2)CCCN1[C@@H]1CCCN(c2ncnc3[nH]ccc23)C1 (stereo partly drawn) [compound 318, (3′R)-3-(2-(Piperidin-1-ylsulfonyl)phenylamino)-1′-(7H-pyrrolo[2,3-d]pyrimidin-4-yl)-1,3′-bipiperidin-2-one]	> 7.00
Nc1ncnc(N2CCC[C@@H](N3CCCC(Nc4cc(Cl)cc(Cl)c4)C3=O)C2)c1F (stereo partly drawn) [compound 278, (3′R)-1′-(6-amino-5-fluoropyrimidin-4-yl)-3-(3,5-dichlorophenylamino)-1,3′-bipiperidin-2-one]	> 7.00
Nc1ncnc(N2CC[C@@H](C(F)(F)F)[C@H](N3CC=CC[C@@H](Nc4cc(F)cc(Cl)c4)C3=O)C2)c1F [compound 350]	> 7.00
O=C(Nc1ccccc1)Nc1ncc(C2CCCN(c3ncnc4[nH]ccc34)C2)s1 (stereo not drawn) [compound 115, 1-(5-(1-(7H-pyrrolo[2,3-d]pyrimidin-4-yl)piperidin-3-yl)thiazol-2-yl)-3-phenylurea]	< 5.00
O=C1[C@@H](Nc2cc(Cl)cc(Cl)c2)CCN1[C@@H]1CCCN(c2ncnc3[nH]ccc23)C1 [compound 357]	> 7.00
O=C(Nc1ccccc1)Nc1cccc(C2CCCN(c3ncnc4[nH]cnc34)C2)c1 (stereo not drawn) [compound 174]	6.00 to 7.00
Nc1ncnc(N2CC[C@@H](F)[C@H](N3CCC[C@@H](Nc4cc(F)cc(Cl)c4)C3=O)C2)c1F [compound 342, (3R,3′R,4′R)-1′-(6-amino-5-fluoropyrimidin-4-yl)-3-(3-chloro-5-fluorophenylamino)-4′-fluoro-1,3′-bipiperidin-2-one]	< 5.00
CO[C@H]1CCN(c2ccccc2NC(=O)Nc2cccc(C3CCCN(c4ncnc5[nH]ccc45)C3)c2)C1 (stereo partly drawn) [compound 157]	> 7.00
O=C(Nc1cccc(C2CCCN(c3ncnc4[nH]ccc34)C2)c1)NC1CCNCC1 (stereo not drawn) [compound 243]	< 5.00
O=C(NCC1CCOCC1)Nc1cccc(C2CCCN(c3ncnc4[nH]ccc34)C2)c1 (stereo not drawn) [compound 223]	< 5.00
O=C(Nc1ccccc1)NC1CN(C2CCCN(c3ncnc4[nH]ccc34)C2)C1 (stereo not drawn) [compound 234]	< 5.00
Nc1cc(N2CCC[C@@H](N3CCCC(Nc4cc(F)cc(Cl)c4)C3=O)C2)ncn1 (stereo partly drawn) [compound 361]	> 7.00
CNC(=O)Nc1cccc(C2CCCN(c3ncnc4[nH]ccc34)C2)c1 (stereo not drawn) [compound 262]	< 5.00
O=C(Nc1cccc(C2CCCN(c3ncnc4[nH]ccc34)C2)c1)Nc1c(Cl)cccc1N1CCCC1 (stereo not drawn) [Cmpd 50, 1-(3-(1-(7H-pyrrolo[2,3-d]pyrimidin-4-yl)piperidin-3-yl)phenyl)-3-(2-chloro-6-(pyrrolidin-1-yl)phenyl)urea]	> 7.00
Cc1cccc(Cl)c1NC(=O)Nc1cccc(C2CCCN(c3ncnc4[nH]ccc34)C2)c1 (stereo not drawn) [compound 238]	< 5.00
Nc1ncnc(N2CC[C@@H](F)[C@@H](N3CCC[C@@H](Nc4cc(F)cc(Cl)c4)C3=O)C2)c1F [compound 341, (3R,3′S,4′R)-1′-(6-amino-5-fluoropyrimidin-4-yl)-3-(3-chloro-5-fluorophenylamino)-4′-fluoro-1,3′-bipiperidin-2-one]	> 7.00
